# The source made the active and inactive calls. No cut-off for these calls is given here.
# How the values were obtained:
# [1] = target: Histone deacetylase 3 (Homo sapiens, UniProt O15379); assay: Inhibition of human recombinant HDAC3 at 1 uM measured after 30 mins by fluorescence based microplate assay relative to control
# [2] = target: T1, Histone deacetylase 1 (Homo sapiens, UniProt Q13547); assay: Inhibition of full length N-terminal human recombinant HDAC1 at 1 uM incubated for 30 mins by fluorescence based microplate assay relative to control
# T1 sequence (Q13547 whole entry): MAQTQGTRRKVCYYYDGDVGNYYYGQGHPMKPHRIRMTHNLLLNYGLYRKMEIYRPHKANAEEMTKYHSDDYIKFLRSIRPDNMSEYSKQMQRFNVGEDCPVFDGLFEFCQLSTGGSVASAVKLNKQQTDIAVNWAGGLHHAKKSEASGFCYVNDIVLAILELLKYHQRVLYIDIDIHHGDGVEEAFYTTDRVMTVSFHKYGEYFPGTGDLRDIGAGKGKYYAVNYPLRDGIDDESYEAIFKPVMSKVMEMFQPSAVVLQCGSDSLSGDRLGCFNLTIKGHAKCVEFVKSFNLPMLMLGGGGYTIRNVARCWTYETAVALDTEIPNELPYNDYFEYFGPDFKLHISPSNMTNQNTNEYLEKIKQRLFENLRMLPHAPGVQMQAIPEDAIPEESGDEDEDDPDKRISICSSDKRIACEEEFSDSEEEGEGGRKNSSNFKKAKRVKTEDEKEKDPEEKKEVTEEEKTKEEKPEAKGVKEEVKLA
# [3] = Cytotoxicity against human MCF-10A cells assessed as inhibition of cell growth incubated for 72 hrs by MTT assay; type: toxicity, cell-based
# [4] = Cytotoxicity against human HCEC cells assessed as inhibition of cell growth incubated for 72 hrs by MTT assay; type: toxicity, cell-based; settings: human, HCEC cells
# [5] = AUC (0 to t) in Wistar rat at 15 mg/kg, ip measured upto 24 hrs by HPLC analysis; type: ADME, organism-based; parameters: dose 15 mg/kg, time < 24 hrs, route ip; settings: in vivo
# [6] = AUC (0 to infinity) in Wistar rat at 5 mg/kg, ip measured upto 24 hrs by HPLC analysis; type: ADME, organism-based; parameters: dose 5 mg/kg, time < 24 hrs, route ip; settings: in vivo
# [7] = target: T1, Histone deacetylase 1; assay: Inhibition of human recombinant HDAC1 incubated for 15 mins by fluorescence based microplate analysis
# [8] = target: Histone deacetylase 5 (Homo sapiens, UniProt Q9UQL6); assay: Inhibition of recombinant HDAC5 (unknown origin) incubated for 30 mins by fluorescence based microplate analysis
# Sequence of Histone deacetylase 5 (Q9UQL6 whole entry): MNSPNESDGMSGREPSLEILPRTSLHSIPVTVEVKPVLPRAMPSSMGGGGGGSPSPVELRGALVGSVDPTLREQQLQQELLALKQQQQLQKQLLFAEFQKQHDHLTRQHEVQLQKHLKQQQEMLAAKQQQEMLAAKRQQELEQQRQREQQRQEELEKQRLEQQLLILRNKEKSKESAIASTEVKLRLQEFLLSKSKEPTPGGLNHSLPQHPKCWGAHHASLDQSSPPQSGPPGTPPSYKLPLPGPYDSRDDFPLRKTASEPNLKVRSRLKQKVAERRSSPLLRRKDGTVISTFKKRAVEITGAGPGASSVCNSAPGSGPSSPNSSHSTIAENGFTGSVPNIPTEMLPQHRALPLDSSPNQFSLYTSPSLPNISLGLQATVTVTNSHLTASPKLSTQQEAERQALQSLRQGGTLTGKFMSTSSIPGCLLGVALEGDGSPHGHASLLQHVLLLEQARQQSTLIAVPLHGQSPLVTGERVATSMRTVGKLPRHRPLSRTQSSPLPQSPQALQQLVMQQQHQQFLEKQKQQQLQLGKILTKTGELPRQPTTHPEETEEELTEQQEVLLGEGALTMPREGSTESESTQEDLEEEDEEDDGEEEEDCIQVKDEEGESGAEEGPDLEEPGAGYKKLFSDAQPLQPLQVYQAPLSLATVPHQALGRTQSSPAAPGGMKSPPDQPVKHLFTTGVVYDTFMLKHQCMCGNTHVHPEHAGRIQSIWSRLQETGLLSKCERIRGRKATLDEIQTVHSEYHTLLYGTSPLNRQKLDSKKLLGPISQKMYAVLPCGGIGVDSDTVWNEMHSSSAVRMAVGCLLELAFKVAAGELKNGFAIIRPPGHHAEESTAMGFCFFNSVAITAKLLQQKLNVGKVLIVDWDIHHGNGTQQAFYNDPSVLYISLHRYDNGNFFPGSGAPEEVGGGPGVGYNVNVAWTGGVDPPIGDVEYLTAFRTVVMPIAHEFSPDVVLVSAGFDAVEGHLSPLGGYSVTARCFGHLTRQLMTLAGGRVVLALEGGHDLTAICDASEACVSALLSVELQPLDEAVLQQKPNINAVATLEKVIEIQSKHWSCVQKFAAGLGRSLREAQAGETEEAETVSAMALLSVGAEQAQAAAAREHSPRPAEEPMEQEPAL
# [9] = Selectivity ratio of IC50 for cytotoxicity against human MCF-10A cells assessed as inhibition of cell growth to IC50 for cytotoxicity against human MDA-MB-231 cells assessed as inhibition of cell growth; type: toxicity, cell-based; settings: MCF-10A cells versus MDA-MB-231 cells, read-out: Ratio IC50
# [10] = Selectivity ratio of IC50 for cytotoxicity against human HEK293 cells assessed as inhibition of cell growth to IC50 for cytotoxicity against human MCF7 cells assessed as inhibition of cell growth; type: toxicity, cell-based; settings: HEK293 cells versus MCF7 cells, read-out: Ratio IC50
# [11] = test system: 4T1; assay: Induction of apoptosis in mouse 4T1 cells assessed as increase in cleaved caspase-3 level by Western blot analysis; type: functional, cell-based; settings: dose 1.0 µM
# [12] = test system: 4T1; assay: Induction of apoptosis in mouse 4T1 cells assessed as increase cytochrome c level by Western blot analysis; type: functional, cell-based; settings: dose 1.0 µM
# [13] = test system: 4T1; assay: Induction of apoptosis in mouse 4T1 cells at 7.72 uM incubated for 72 hrs by annexin/PI staining based flow cytometry analysis (reference value: 1.35%); type: functional
# [14] = test system: 4T1; assay: Cell cycle arrest in mouse 4T1 cells assessed as accumulation of cells at G2/M phase at 550 nM incubated for 72 hrs by flow cytometry; type: functional
# [15] = test system: 4T1; assay: Induction of apoptosis in mouse 4T1 cells assessed as nuclear fragmentation incubated for 72 hrs by acridine orange staining based analysis; type: functional, cell-based
# [16] = Cytotoxicity against Oxaliplatin-resistant human MDA-MB-231 cell assessed as reduction in cell viability incubated for 72 hrs in presence of oxaliplatin by MTT assay; type: functional, cell-based; settings: Oxaliplatin-resistant MDA-MB-231 cell
# [17] = test system: 4T1; assay: Antitumor activity against mouse 4T1 cells implanted in BALB/c mouse assessed as reduction in tumor volume at 5 mg/kg, ip administered 5 times a week for 21 days (reference value: 52.05+/-13.23 mm3); type: functional; settings: time 21 day
# [18] = test system: 4T1; assay: Antitumor activity against mouse 4T1 cells implanted in BALB/c mouse assessed as reduction in tumor volume at 15 mg/kg, ip administered 5 times a week for 21 days (reference value: 52.05+/-12.35 mm3); type: functional; settings: time 21 day
# [19] = test system: 4T1; assay: Antitumor activity against mouse 4T1 cells implanted in BALB/c mouse assessed as reduction in tumor weight at 15 mg/kg, ip administered 5 times a week for 21 days; type: functional; settings: time 21 day
# [20] = test system: 4T1; assay: Antitumor activity against mouse 4T1 cells implanted in BALB/c mouse assessed as reduction in tumor weight at 5 mg/kg, ip administered 5 times a week for 21 days; type: functional; settings: time 21 day
# [21] = test system: 4T1; assay: Antitumor activity against mouse 4T1 cells implanted in BALB/c mouse assessed as tumor growth inhibition at 15 mg/kg, ip measured on day 21; type: functional; settings: 4T1, 504 h, time 21 day, read-out: TGI
# [22] = test system: Mus musculus; assay: Induction of ROS generation in mouse implanted with mouse 4T1 cells at 5 mg/kg, ip administered for 21 days by DCFH-DA staining based microscopic analysis; type: functional, organism-based; settings: time 21.0 day
# [23] = test system: 4T1; assay: Antitumor activity against mouse 4T1 cells implanted in BALB/c mouse assessed as increase in apoptosis in tumor tissue at 5 to 15 mg/kg, ip by TUNEL staining based microscopic analysis; type: functional, organism-based; settings: dose 5-15 mg/kg
# [24] = test system: 4T1; assay: Antitumor activity against mouse 4T1 cells implanted in BALB/c mouse assessed as reduction in Ki-67 expression in tumor tissue at 5 to 15 mg/kg, ip measured for 21 days by fluorescence based microscopic analysis; type: functional, organism-based; settings: dose 5-15 mg/kg, time 21.0 day
# [25] = test system: 4T1; assay: Antitumor activity against mouse 4T1 cells implanted in BALB/c mouse assessed as reduction in lung metastasis at 5 to 15 mg/kg, ip measured for 7 days by fluorescence based assay; type: functional, organism-based; settings: dose 5-15 mg/kg, time 7.0 day
# [26] = Toxicity in BALB/c mouse implanted with mouse 4T1 cells assessed as effect on cell size in kidney at 5 to 15 mg/kg, ip measured after 21 days by H and E staining based assay; type: organism-based; settings: in vivo, 504 h, dose 5-15 mg/kg, time 21 day
# [27] = Toxicity in BALB/c mouse implanted with mouse 4T1 cells assessed as effect on cell size in spleen at 5 to 15 mg/kg, ip measured after 21 days by H and E staining based assay; type: organism-based; settings: in vivo, 504 h, dose 5-15 mg/kg, time 21 day
# [28] = Toxicity in BALB/c mouse implanted with mouse 4T1 cells assessed as neutrophilic infiltration in liver at 5 to 15 mg/kg, ip measured after 21 days; type: organism-based; settings: in vivo, 504 h, dose 5-15 mg/kg, time 21 day
# [29] = Toxicity in BALB/c mouse implanted with mouse 4T1 cells assessed as neutrophilic infiltration in kidney at 5 to 15 mg/kg, ip measured after 21 days; type: organism-based; settings: in vivo, 504 h, dose 5-15 mg/kg, time 21 day
# [30] = Toxicity in BALB/c mouse implanted with mouse 4T1 cells assessed as neutrophilic infiltration in spleen at 5 to 15 mg/kg, ip measured after 21 days; type: organism-based; settings: in vivo, 504 h, dose 5-15 mg/kg, time 21 day
# [31] = test system: 4T1; assay: Antitumor activity against mouse 4T1 cells implanted in BALB/c mouse assessed as decrease in number of lung aggregated cells at 15 mg/kg, ip measured for 7 days by H and E staining based assay; type: functional, organism-based; settings: time 7.0 day
# [32] = test system: 4T1; assay: Antitumor activity against mouse 4T1 cells implanted in BALB/c mouse assessed as reduction in lung metastasis at 5 to 15 mg/kg, ip measured for 7 days by H and E staining based assay; type: functional; parameters: scale not given: the % may be the effect or the level left; settings: dose 5-15 mg/kg, time 7 day
# [33] = test system: 4T1; assay: In-vivo inhibition of HDAC3 in ip dosed BALB/c mouse implanted with mouse 4T1 cells assessed as hyperacetylation of H3K27 level by Western blot analysis; type: functional, organism-based; settings: dose 5-15 mg/kg
# [34] = test system: 4T1; assay: Antitumor activity against mouse 4T1 cells implanted in BALB/c mouse assessed as upregulation of caspase-3 level in tumor at 5 to 15 mg/kg, ip by Western blot analysis; type: functional, organism-based; settings: dose 5-15 mg/kg
# [35] = test system: 4T1; assay: Antitumor activity against mouse 4T1 cells implanted in BALB/c mouse assessed as upregulation of cytochrome c level in tumor at 5 to 15 mg/kg, ip by Western blot analysis; type: functional, organism-based; settings: dose 5-15 mg/kg
# Sequence of Histone deacetylase 3 (O15379 whole entry): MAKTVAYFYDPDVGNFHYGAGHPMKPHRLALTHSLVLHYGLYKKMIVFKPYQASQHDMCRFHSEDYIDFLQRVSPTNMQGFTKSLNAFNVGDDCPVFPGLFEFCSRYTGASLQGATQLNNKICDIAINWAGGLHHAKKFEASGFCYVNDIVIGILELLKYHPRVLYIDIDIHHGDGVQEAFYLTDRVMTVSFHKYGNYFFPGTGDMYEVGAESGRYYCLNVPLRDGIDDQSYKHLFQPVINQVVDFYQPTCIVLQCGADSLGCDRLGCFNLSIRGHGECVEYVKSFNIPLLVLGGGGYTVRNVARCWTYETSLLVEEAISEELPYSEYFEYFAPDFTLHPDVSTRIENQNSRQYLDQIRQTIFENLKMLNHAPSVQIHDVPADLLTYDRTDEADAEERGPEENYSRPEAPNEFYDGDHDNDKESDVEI
structure (smiles),measurement,setting,value
CCCNNC(=O)c1cnc(NCc2ccc(OC)cc2)cn1,inhibition,[1],> 70%
same,inhibition,[2],< 17%
same,IC50 at 72 h,[3],212 µM
same,IC50 at 72 h,[4],212 µM
same,AUC(0-t) at 24 h,[5],19600 ng·h/mL
same,AUC(0-inf),[6],4320 ng·h/mL
same,IC50,[7],1.98 µM
same,IC50,[8],> 20 µM
same,selectivity ratio,[9],385
same,selectivity ratio,[10],286
same,Activity,[11],Dose-Dependent Effect
same,Activity,[12],Dose-Dependent Effect
same,Activity,[13],46.9%
same,Activity,[14],52.6%
same,Activity,[15],Active
same,IC50,[16],0.447 µM
same,Activity,[17],185.23 mm3
same,Activity,[18],101.23 mm3
same,Activity,[19],1.78 g
same,Activity,[20],0.65 g
same,inhibition in vivo at 15 mg/kg,[21],97.9%
same,Activity,[22],Active
same,Activity,[23],Active
same,Activity,[24],Active
same,Activity,[25],Active
same,Activity,[26],Non-Toxic
same,Activity,[27],Non-Toxic
same,Activity,[28],Non-Toxic
same,Activity,[29],Non-Toxic
same,Activity,[30],Non-Toxic
same,Activity,[31],Active
same,Activity,[32],~90%
same,inhibition,[33],Dose-Dependent Effect
same,Activity,[34],Active
same,Activity,[35],Active
